Measured values from patent publication US20070128217A1 (priority 2003, published 2007).

Legend:
[1] = system: control sera (pooled serum of ten healthy LUMC hospital workers; commercial negative donor pooled serum from the Dutch bloodbank); format: binding, human; design: Binding of Control serum LUMC to linear peptides / Binding of Control serum Blood-bank to linear peptides / Binding of Control serum LUMC to looped peptides / Binding of Control Serum Blood-Bank to Looped peptides / Binding of Control serum LUMC to linear peptides of the protein M of SARS-CoV Urbani / Binding of Control serum Blood-bank to linear peptides of the protein M of SARS-CoV Urbani / Binding of Control serum LUMC to looped peptides of the protein M of SARS-CoV Urbani / Binding of Control Serum Blood-Bank to Looped peptides of the protein M of SARS-CoV Urbani: unit not given here
[2] = system: recombinant human anti-SARS-CoV antibody 03-018; format: binding; design: Binding of antibody 03-018 to linear peptides of the N protein of SARS-CoV Urbani / Binding of antibody 03-018 to looped/cyclic peptides of the N protein of SARS-CoV Urbani: unit not given here
[3] = system: rabbit serum obtained by immunizing a rabbit with the SARS-CoV strain Frankfurt 1; format: binding; design: Binding of a rabbit serum to linear peptides / Binding of a rabbit serum to looped peptides / Rabbit serum linear peptides / Rabbit serum looped peptides / Binding of a rabbit serum to linear peptides of protein N of SARS-CoV Urbani (Rabbit serum linear peptides) / Binding of a rabbit serum to looped/cyclic peptides of protein N of SARS-CoV Urbani (Rabbit serum looped peptides): unit not given here
[4] = system: antibodies in sera from SARS patients (sera 1a, 1b, 2, 6, 37, 62, London, SARS-yellow, SARS-green); format: binding, human; design: Binding of serum 6 to linear peptides of protein X1 of SARS-CoV Urbani / Binding of serum 37 to linear peptides of protein X1 of SARS-CoV Urbani / Binding of serum 6 to looped/cyclic peptide (PEPSCAN-ELISA) / Binding of serum 37 to looped/cyclic peptide (PEPSCAN-ELISA) / Binding of serum 37 to looped/cyclic peptides of protein X1 of SARS-CoV Urbani / Binding of serum 6 to linear peptides of protein X2 / Binding of serum 37 to linear peptides of protein X2 / Binding of serum 37 to looped/cyclic peptides of protein X2 of SARS-CoV Urbani / Binding of serum 6 to linear peptides of protein M of SARS-CoV Urbani / Binding of serum 37 to linear peptides of protein M of SARS-CoV Urbani / Binding of serum 6 to looped/cyclic peptides of protein M of SARS-CoV Urbani / Binding of serum 37 to looped/cyclic peptides of protein M of SARS-CoV Urbani / Binding of serum 6 to linear peptides of protein X3 of SARS-CoV Urbani / Binding of serum 37 to linear peptides of protein X3 of SARS-CoV Urbani / Binding of serum 37 to looped/cyclic peptides of protein X3 of SARS-CoV Urbani / Binding of serum 6 to linear peptides of protein X4 of SARS-CoV Urbani / Binding of serum 37 to linear peptides of protein X4 of SARS-CoV Urbani / Binding of serum 37 to looped/cyclic peptides of protein X4 of SARS-CoV Urbani / Binding of serum 6 to linear peptides of protein X5 of SARS-CoV Urbani / Binding of serum 37 to linear peptides of protein X5 of SARS-CoV Urbani / Binding of serum 37 to looped/cyclic peptides of protein X5 of SARS-CoV Urbani / Binding of serum 6 to linear peptides of protein N of SARS-CoV Urbani / Binding of serum 37 to linear peptides of protein N of SARS-CoV Urbani / Binding of serum 6 to linear peptide (PEPSCAN-ELISA) / Binding of serum 1a to looped/cyclic peptides of protein N of SARS-CoV Urbani / Binding of serum 1b to looped/cyclic peptides of protein N of SARS-CoV Urbani / Binding of serum 2 to looped/cyclic peptides of protein N of SARS-CoV Urbani / Binding of serum 6 to looped/cyclic peptides of protein N of SARS-CoV Urbani / Binding of serum 37 to looped/cyclic peptides of protein N of SARS-CoV Urbani / Binding of serum 62 to looped/cyclic peptides of protein N of SARS-CoV Urbani / Binding of serum London to looped/cyclic peptides of protein N of SARS-CoV Urbani / Binding of serum SARS-green to looped/cyclic peptides of protein N of SARS-CoV Urbani: unit not given here

Sequence	Binding of Control Serum Blood-Bank to Looped peptides [1]	Binding of Control serum Blood-bank to linear peptides [1]	Binding of Control serum LUMC to linear peptides [1]	Binding of Control serum LUMC to looped peptides [1]	Binding of antibody 03-018 to linear peptides of the N protein of SARS-CoV Urbani [2]	Binding of antibody 03-018 to looped/cyclic peptides of the N protein of SARS-CoV Urbani [2]	Binding of a rabbit serum to linear peptides of protein N of SARS-CoV Urbani (Rabbit serum linear peptides) [3]	Binding of a rabbit serum to looped/cyclic peptides of protein N of SARS-CoV Urbani (Rabbit serum looped peptides) [3]	Binding of serum 1a to linear peptides of protein N of SARS-CoV Urbani [4]	Binding of serum 1a to looped/cyclic peptides of protein N of SARS-CoV Urbani [4]	Binding of serum 1b to linear peptides of protein N of SARS-CoV Urbani [4]	Binding of serum 1b to looped/cyclic peptides of protein N of SARS-CoV Urbani [4]	Binding of serum 2 to linear peptides of protein N of SARS-CoV Urbani [4]	Binding of serum 2 to looped/cyclic peptides of protein N of SARS-CoV Urbani [4]	Binding of serum 6 to looped/cyclic peptides of protein N of SARS-CoV Urbani [4]	Binding of serum 37 to looped/cyclic peptides of protein N of SARS-CoV Urbani [4]	Binding of serum 62 to looped/cyclic peptides of protein N of SARS-CoV Urbani [4]	Binding of serum London to looped/cyclic peptides of protein N of SARS-CoV Urbani [4]	Binding of serum SARS-green to looped/cyclic peptides of protein N of SARS-CoV Urbani [4]	Binding of serum SARS-yellow to looped/cyclic peptides of protein N of SARS-CoV Urbani [4]	further results
GLPNNTASWFTALTQ	0.8	0.7	0.6	0.7	0.1	0.3	0.1	0.4	0.2	0.4	0.1	0.2	0.2	0.4	0.3	0.7	0.7	0.4	0.6	0.5	Binding of serum 6 to linear peptides of protein N of SARS-CoV Urbani [4]: 0.1; Binding of serum 37 to linear peptides of protein N of SARS-CoV Urbani [4]: 0.7; Binding of serum 62 to linear peptides of protein N of SARS-CoV Urbani [4]: 0.6; Binding of serum London to linear peptides of protein N of SARS-CoV Urbani [4]: 0.4; Binding of serum SARS-green to linear peptides of protein N of SARS-CoV Urbani [4]: 0.4; Binding of serum SARS-yellow to linear peptides of protein N of SARS-CoV Urbani [4]: 0.4
ESKVSGKGQQQQGQT	1.1	0.7	0.8	0.9	0.1	0.2	0.1	0.6		0.6		0.4		0.8	0.4	0.7	0.7	0.8	0.7	0.9	Binding of serum 1a to linear peptide (PEPSCAN-ELISA) [4]: 0.2; Binding of serum 1b to linear peptide (PEPSCAN-ELISA) [4]: 0.1; Binding of serum 2 to linear peptide (PEPSCAN-ELISA) [4]: 0.2; Binding of serum 6 to linear peptide (PEPSCAN-ELISA) [4]: 0.2; Binding of serum 37 to linear peptide (PEPSCAN-ELISA) [4]: 0.6; Binding of serum 62 to linear peptide (PEPSCAN-ELISA) [4]: 0.7; Binding of serum London to linear peptide (PEPSCAN-ELISA) [4]: 0.5; Binding of serum SARS-green to linear peptide (PEPSCAN-ELISA) [4]: 0.4; Binding of serum SARS-yellow to linear peptide (PEPSCAN-ELISA) [4]: 0.7
NSGPDDQIGYYRRAT	0.7	0.7	0.7	0.8	0.1	0.2	0.1	0.5	0.2	0.5	0.1	0.3	0.1	0.5	0.3	1.0	0.7	0.5	0.5	0.6	Binding of serum 6 to linear peptides of protein N of SARS-CoV Urbani [4]: 0.2; Binding of serum 37 to linear peptides of protein N of SARS-CoV Urbani [4]: 0.7; Binding of serum 62 to linear peptides of protein N of SARS-CoV Urbani [4]: 0.6; Binding of serum London to linear peptides of protein N of SARS-CoV Urbani [4]: 0.4; Binding of serum SARS-green to linear peptides of protein N of SARS-CoV Urbani [4]: 0.1; Binding of serum SARS-yellow to linear peptides of protein N of SARS-CoV Urbani [4]: 0.5
PSASAFFGMSRIGME					0.1	0.2	0.1	0.3	0.2	0.4	0.1	0.3	0.1	0.3	0.2	0.6	0.4	0.3	0.3	0.4	Control Serum Blood-Bank Looped peptides [1]: 0.4; Control serum Blood-bank linear peptides [1]: 0.6; Control serum LUMC linear peptides [1]: 0.6; Control serum LUMC looped peptides [1]: 0.5; Binding of serum 6 to linear peptides of protein N of SARS-CoV Urbani [4]: 0.1; Binding of serum 37 to linear peptides of protein N of SARS-CoV Urbani [4]: 0.6; Binding of serum 62 to linear peptides of protein N of SARS-CoV Urbani [4]: 0.5; Binding of serum London to linear peptides of protein N of SARS-CoV Urbani [4]: 0.5; Binding of serum SARS-green to linear peptides of protein N of SARS-CoV Urbani [4]: 0.1; Binding of serum SARS-yellow to linear peptides of protein N of SARS-CoV Urbani [4]: 0.6
